Activity calls are given as the source filed them. Where only a bound is given, the exact number is not on record here.

Data set [1] relates to MDA-MB-231. Nature of the data set: Effect on mitochondrial function in human MDA-MB-231 cells assessed as fold increase in mean fluorescence intensity at IC50 incubated for 48 hrs by MitoTracker Red CMXRos staining based flow cytometry analysis relative to control. In kind it is functional.
The subject of data set [2] is A549. Nature of the data set: Induction of mitochondrial respiration in human A549 cells assessed as increase in oxygen consumption rate by Oxygraph-2K system. In kind it is functional, cell-based.
In data set [3] the test system is MDA-MB-231. Briefly: Induction of ROS generation of human MDA-MB-231 cells assessed as fold increase at IC50 incubated for 6 hrs by CellROX Green staining based spectrofluorometer analysis relative to control. In kind it is functional.
For data set [4], the system named is Mitochondrial membrane. Briefly: Induction of mitochondrial membrane potential loss in human MDA-MB-231 cells assessed as red fluorescence at IC50 incubated for 48 hrs MitoTrackerRed CMXRos staining based flow cytometry analysis (reference value: 91.1 %). In kind it is cell membranes.
The test system of data set [5] is MDA-MB-231. Nature of the data set: Induction of cell cycle arrest in human […] cells assessed as accumulation of cells at G2 phase at IC50 incubated for 24 hrs by propidium iodide staining based flow cytometry analysis. In kind it is functional.
The test system of data set [6] is MDA-MB-231. Nature of the data set: Induction of apoptosis in human MDA-MB-231 cells assessed as late apoptotic cells at IC50 incubated for 72 hrs by Annexin V-FITC staining based flow cytometry analysis (reference value: 3.07 %). In kind it is functional. (In general: In flow cytometry, cells or beads pass a laser one at a time.)
Data set [7] has as its system A549. Briefly: Induction of apoptosis in human A549 cells assessed as viable cells at IC50 incubated for 72 hrs by Annexin V-FITC staining based flow cytometry analysis (reference value: 95.49 %). In kind it is functional.
Data set [8] relates to MDA-MB-231. Briefly: Cytotoxicity against human MDA-MB-231 cells incubated for 72 hrs by MTT assay. Type of data set: functional, cell-based. The note with it: MDA-MB-231, 72 h. In general terms: Tetrazolium assays rely on reduction of a dye to a coloured formazan, in cell work by metabolically active cells.
In data set [9] the test system is A549. Briefly: Induction of cell cycle arrest in human A549 cells assessed as accumulation of cells at G0/G1 phase at IC50 incubated for 24 hrs by propidium iodide staining based flow cytometry analysis (reference value: 54.3 %). In kind it is functional.
Data set [10] relates to Staphylococcus epidermidis. Nature of the data set: Antimicrobial activity against Staphylococcus epidermidis ATCC 35984 incubated for 18 hrs by twofold microdilution method. Type of data set: functional. Background: In broth dilution the organism is exposed to a series of concentrations in liquid medium.
For data set [11], the system named is MDA-MB-231. Nature of the data set: Induction of cell cycle arrest in human […] cells assessed as accumulation of cells at S phase at IC50 incubated for 24 hrs by propidium iodide staining based flow cytometry analysis. In kind it is functional.
The subject of data set [12] is Mitochondrial membrane. Briefly: Induction of mitochondrial membrane potential loss in human A549 cells assessed as red fluorescence at IC50 incubated for 48 hrs MitoTrackerRed CMXRos staining based flow cytometry analysis (reference value: 91.1 %). Type of data set: cell membranes.
The test system of the next data set is Escherichia coli. Nature of the data set: Antimicrobial activity against Escherichia coli ATCC 25922 incubated for 18 hrs by twofold microdilution method. In kind it is functional.
The nature of data set [13]: Selectivity index, ratio of IC50 for cytotoxicity against chinese hamster V79 cells to IC50 for cytotoxicity against human SW620 cells. The note with it: V79 cells versus SW620 cells, read-out: Ratio IC50. Type of data set: toxicity, cell-based.
A short description of data set [14]: Selectivity index, ratio of IC50 for cytotoxicity against human HaCaT cells to IC50 for cytotoxicity against human SW620 cells. Type of data set: toxicity, cell-based. The note with it: HaCaT cells versus SW620 cells, read-out: Ratio IC50.
For data set [15], the system named is Mitochondrial membrane. Nature of the data set: Induction of mitochondrial membrane potential loss in human MDA-MB-231 cells assessed as green fluorescence at IC50 incubated for 48 hrs MitoTracker Green FM staining based flow cytometry analysis (reference value: 8.86 %). Type of data set: cell membranes.
A short description of data set [16]: Selectivity index, ratio of IC50 for cytotoxicity against human HaCaT cells to IC50 for cytotoxicity against human A549 cells. In kind it is toxicity, cell-based. The note with it: HaCaT cells versus A549 cells, read-out: Ratio IC50.
The subject of a further data set is Staphylococcus aureus. Nature of the data set: Antimicrobial activity against Staphylococcus aureus ATCC 25923 incubated for 18 hrs by twofold microdilution method. Type of data set: functional.
For a further data set, the system named is Pseudomonas aeruginosa. Nature of the data set: Antimicrobial activity against Pseudomonas aeruginosa ATCC 15442 incubated for 18 hrs by twofold microdilution method. Type of data set: functional.
Data set [17] relates to Lipid bilayer. Nature of the data set: Induction of ionic transport in azolectin bilayer membrane assessed as specific channel-like structure formation in presence of HEPES buffer by electrophysiology technique.
The test system of data set [18] is Lipid bilayer. Nature of the data set: Induction of ionic transport in azolectin bilayer membrane assessed as membrane rupture in presence of HEPES buffer by electrophysiology technique.
Data set [19] concerns A549. Nature of the data set: Induction of mitochondrial respiration in human A549 cells assessed as increase in oxygen consumption rate upto 10 uM by Oxygraph-2K system. Type of data set: functional, cell-based.
Data set [20] deals with Lipid bilayer. Nature of the data set: Induction of current generation in azolectin bilayer membrane in presence of HEPES buffer by electrophysiology technique.
Data set [21] concerns Lipid bilayer. Briefly: Induction of ionic transport in azolectin bilayer membrane assessed as irregular disturbance in membrane permeability in presence of HEPES buffer by electrophysiology technique.

For the molecule `CCCC[P+](CCCC)(CCCC)CCCCOC(=O)[C@H](CC)[C@H]1CC[C@H](C)[C@H]([C@@H](C)[C@H](O)[C@H](C)C(=O)[C@H](CC)[C@H]2O[C@]3(C=C[C@@H](O)[C@]4(CC[C@@](C)([C@H]5CC[C@](O)(CC)[C@H](C)O5)O4)O3)[C@H](C)C[C@@H]2C)O1.[Br-]`, the “fold change (FC)” value in the data set with MDA-MB-231 [1] was 5; in the data set on MDA-MB-231 [3], 2. The Activity result with A549 [2] was “Active; Small Increase In Oxygen Consumption Rate Was Observed”; in the data set on Mitochondrial membrane [4], 29.4%; in the data set with MDA-MB-231 [6], 21.8%; with A549 [7] it was 19.91%; with Mitochondrial membrane [12], 67.3%; in the data set on Mitochondrial membrane [15] it was 70.7%. The outcome in the data set on MDA-MB-231 [5] and in the data set on MDA-MB-231 [11] was inactive. In the data set on MDA-MB-231 [8], this molecule registered an IC50 of 900 nM. The outcome with A549 [9] was Active. The MIC in data set [10] was 2 µg/mL; with Escherichia coli, greater than 256 µg/mL; against Staphylococcus aureus, 2 µg/mL; against Pseudomonas aeruginosa it was greater than 256 µg/mL. For the same molecule, the selectivity ratio turned out to be 1.1 in data set [13], 1.3 in data set [14] and 0.8 in data set [16].

`CC[C@@H](C(=O)[C@@H](C)[C@@H](O)[C@H](C)[C@@H]1O[C@@H]([C@@H](CC)C(=O)OCCCC[P+](c2ccccc2)(c2ccccc2)c2ccccc2)CC[C@@H]1C)[C@H]1O[C@]2(C=C[C@@H](O)[C@]3(CC[C@@](C)([C@H]4CC[C@](O)(CC)[C@H](C)O4)O3)O2)[C@H](C)C[C@@H]1C.[Br-]`: the “fold change (FC)” value with MDA-MB-231 [1] is reported as 3; with MDA-MB-231 [3], 2. Moreover, the Activity is 39.1% in the data set with Mitochondrial membrane [4]; 15.32% with MDA-MB-231 [6]; 31.8% with A549 [7]; 68.5% with A549 [9]; 58.3% in the data set on Mitochondrial membrane [12]; 60.8% in the data set on Mitochondrial membrane [15]. The Activity result in the data set with Lipid bilayer [20] was “Dose-dependent-effect”. The outcome in the data set with MDA-MB-231 [5], in the data set with Lipid bilayer [17], in the data set with MDA-MB-231 [11], with Lipid bilayer [18] and in the data set with Lipid bilayer [21] was inactive. This molecule also showed an IC50 in the data set with MDA-MB-231 [8] of 740 nM. Moreover, the MIC in [10] worked out at 1 µg/mL; in the data set with Escherichia coli, 256 µg/mL; with Staphylococcus aureus it was 2 µg/mL; in the data set on Pseudomonas aeruginosa, 256 µg/mL. Moreover, the selectivity ratio in data set [13] turned out to be 0.9; in [14], 8.8; in data set [16], 1.8. Besides, the result in the data set on A549 [19] was Active.

For orientation: IC50 means the concentration that inhibits the measured activity by half. A higher IC50 goes with lower potency. Usually MIC stands for the smallest concentration in the dilution series that meets the test's criterion for growth inhibition. A higher MIC goes with a need for much substance.

The values above are taken from ChEMBL document CHEMBL6120978, “Anticancer activity of salinomycin quaternary phosphonium salts” (Eur J Med Chem, 2025).
